Target: Casein kinase II subunit alpha (Homo sapiens, UniProt P68400)
Experiment: Inhibition of N-terminal GST-fusion protein tagged full length human CK2alpha1 (1 to 391 residues) expressed in baculovirus expression system co-expressing human His-tagged CK2beta using CK2tide as substrate incubated for 1 hrs in presence of ATP by off-chip mobility shift assay

Sequence of Casein kinase II subunit alpha (P68400 whole entry, the tested form may be a part): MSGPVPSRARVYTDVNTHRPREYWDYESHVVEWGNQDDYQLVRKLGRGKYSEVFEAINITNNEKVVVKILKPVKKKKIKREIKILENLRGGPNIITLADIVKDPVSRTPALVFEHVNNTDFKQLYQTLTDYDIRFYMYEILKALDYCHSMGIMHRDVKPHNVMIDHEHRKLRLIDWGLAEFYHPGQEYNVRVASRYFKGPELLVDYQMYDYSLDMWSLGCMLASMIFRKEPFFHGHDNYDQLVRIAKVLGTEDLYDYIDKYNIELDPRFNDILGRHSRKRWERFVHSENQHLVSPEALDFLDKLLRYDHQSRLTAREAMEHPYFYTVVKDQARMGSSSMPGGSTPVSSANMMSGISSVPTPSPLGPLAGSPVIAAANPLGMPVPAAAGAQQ

NC(=O)c1nc(CCC(=O)O)nc2c1[nH]c(=O)n2-c1ccccc1
IC50: 15 µM

NC(=O)c1nc(-c2cccc(C(=O)O)c2)nc2c1[nH]c(=O)n2-c1ccc(Cl)cc1
IC50: 5.4 µM

COc1ccc(-n2c(=O)[nH]c3c(C(N)=O)nc(-c4cccc(C(=O)O)c4)nc32)cc1
IC50: 2.6 µM

Cc1ccc(-n2c(=O)[nH]c3c(C(N)=O)nc(-c4cccc(C(=O)O)c4)nc32)cc1
IC50: 0.62 µM

NC(=O)c1nc(-c2ccc(C(=O)O)cc2)nc2c1[nH]c(=O)n2-c1ccc(Cl)cc1
IC50: > 30 µM

NC(=O)c1nc(C(=O)O)nc2c1[nH]c(=O)n2-c1ccccc1
IC50: > 30 µM

COc1cccc(-n2c(=O)[nH]c3c(C(N)=O)nc(-c4cccc(C(=O)O)c4)nc32)c1
IC50: 1.9 µM

NC(=O)c1nc(-c2cccc(C(=O)O)c2)nc2c1[nH]c(=O)n2-c1ccc([N+](=O)[O-])cc1
IC50: 0.38 µM

NC(=O)c1nc(-c2ccc(C(=O)O)cc2)nc2c1[nH]c(=O)n2-c1ccc(F)cc1
IC50: > 30 µM

COc1ccc(-n2c(=O)[nH]c3c(C(N)=O)nc(-c4ccc(C(=O)O)cc4)nc32)cc1
IC50: 9.4 µM

COc1cccc(-n2c(=O)[nH]c3c(C(N)=O)nc(-c4ccc(C(=O)O)cc4)nc32)c1
IC50: 18 µM

NC(=O)c1nc(-c2cccc(C(=O)O)c2)nc2c1[nH]c(=O)n2-c1ccc(F)cc1
IC50: 0.18 µM

NC(=O)c1nc(-c2ccc(C(=O)O)cc2)nc2c1[nH]c(=O)n2-c1ccc([N+](=O)[O-])cc1
IC50: > 30 µM

NC(=O)c1nc(CC(=O)O)nc2c1[nH]c(=O)n2-c1ccccc1
IC50: > 30 µM

NC(=O)c1nc(CCCC(=O)O)nc2c1[nH]c(=O)n2-c1ccccc1
IC50: > 30 µM

NC(=O)c1nc(-c2cccc(C(=O)O)c2)nc2c1[nH]c(=O)n2-c1ccccc1
IC50: 1 µM

N#Cc1ccc(-n2c(=O)[nH]c3c(C(N)=O)nc(-c4cccc(C(=O)O)c4)nc32)cc1
IC50: 0.4 µM

NC(=O)c1nc(/C=C/C(=O)O)nc2c1[nH]c(=O)n2-c1ccccc1
IC50: 1 µM

N#Cc1ccc(-n2c(=O)[nH]c3c(C(N)=O)nc(-c4ccc(C(=O)O)cc4)nc32)cc1
IC50: > 30 µM

CN(C)c1ccc(-n2c(=O)[nH]c3c(C(N)=O)nc(-c4ccc(C(=O)O)cc4)nc32)cc1
IC50: 4.3 µM

NC(=O)c1nc(-c2ccc(C(=O)O)cc2)nc2c1[nH]c(=O)n2-c1ccccc1
IC50: 14 µM

Cc1ccc(-n2c(=O)[nH]c3c(C(N)=O)nc(-c4ccc(C(=O)O)cc4)nc32)cc1
IC50: 11 µM

Reference: ChEMBL document CHEMBL5385963, “Enhanced inhibitory activity of compounds containing purine scaffolds compared to protein kinase CK2α considering crystalline water” (RSC Med Chem, 2024)
